Laboratory results reported in patent US20250129430A1, “HIGH ATP-AFFINITY PROTEIN AS THERAPEUTIC TARGET FOR INTRACTABLE CANCER MOLECULAR SUBTYPES AND INHIBITOR THEREOF” (VeraVerse Co., Ltd., priority 2021, published 2025).
Counter-ions that a name gives are not always drawn.

Columns and labels:
Experiment in all cases: Cell viability drug screen, 12-point dose-response AUC
Format in all cases: cell-based, human
AGS = details: 72 hours; for Average Area Under the Viability Curve (AUC), AUC norm value: AGS cells (non-SEM subtype)
Method in brief: (§1)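 Each cell line receives a twelve-point half-log titration of drug beginning 24 h after plating 5×10^3 cells per well. Following 72 h culture at 37 °C, luminescent signal is recorded and expressed versus vehicle. AUC is derived by the trapezoidal method.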

Hs746T = details: 72 hours; for Average Area Under the Viability Curve (AUC), AUC norm value: Hs746T cells (SEM subtype)
Method in brief: (§2)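 Twelve half-log concentrations per compound were tested on gastric cancer cells with an EMT phenotype (5×10^3/well, dosed 24 h post-seeding). Viability after 72 h was quantified via luminescence relative to 0.5% DMSO, and repeats were averaged.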

KATO3 = KATO3 cells, 72 hours
Method in brief: as §2

MKN1 = MKN1 cells, 72 hours
Method in brief: as §2

MKN28 = MKN28 cells, 72 hours
Method in brief: as §2

MKN45 = details: 72 hours; for Average Area Under the Viability Curve (AUC), AUC norm value: MKN45 cells (non-SEM subtype)
Method in brief: as §1

MKN74 = MKN74 cells, 72 hours
Method in brief: as §1

NCC19 = NCC19 cells, 72 hours
Method in brief: as §2

NCC20 = NCC20 cells, 72 hours
Method in brief: as §2

NCC24 = NCC24 cells, 72 hours
Method in brief: as §2

NCC59 = NCC59 cells, 72 hours
Method in brief: as §2

NCI_N87 = NCI_N87 cells, 72 hours
Method in brief: as §2

OCUM1 = OCUM1 cells, 72 hours
Method in brief: as §2

SK4 = details: 72 hours; for Average Area Under the Viability Curve (AUC), AUC norm value: SK4 cells (SEM subtype)
Method in brief: as §2

SNU16 = SNU16 cells, 72 hours
Method in brief: as §2

SNU1750 = details: 72 hours; for Average Area Under the Viability Curve (AUC), AUC norm value: SNU1750 cells (SEM subtype)
Method in brief: as §2

SNU1967 = SNU1967 cells, 72 hours
Method in brief: as §2

SNU1 = SNU1 cells, 72 hours
Method in brief: as §2

SNU216 = details: 72 hours; for Average Area Under the Viability Curve (AUC), AUC norm value: SNU216 cells (non-SEM subtype)
Method in brief: as §1

SNU484 = details: 72 hours; for Average Area Under the Viability Curve (AUC), AUC norm value: SNU484 cells (SEM subtype)
Method in brief: as §2

SNU601 = SNU601 cells, 72 hours
Method in brief: as §2

SNU620 = SNU620 cells, 72 hours
Method in brief: as §2

SNU638 = SNU638 cells, 72 hours
Method in brief: as §2

SNU668 = details: 72 hours; for Average Area Under the Viability Curve (AUC), AUC norm value: SNU668 cells (SEM subtype)
Method in brief: as §2

SNU719 = SNU719 cells, 72 hours
Method in brief: as §1

YCC11 = details: 72 hours; for Average Area Under the Viability Curve (AUC), AUC norm value: YCC11 cells (SEM subtype)
Method in brief: as §2

YCC2 = YCC2 cells, 72 hours
Method in brief: as §2

YCC3 = YCC3 cells, 72 hours
Method in brief: as §2

FU97 = system: FU97; design: Average Area Under the Viability Curve (AUC), AUC norm value: scale not given here; details: FU97 cells, 72 hours
Method in brief: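 Trapezoidal AUC of a 12-point, DMSO-normalized dose-response curve. Luminescent viability was measured after 72 h of exposure at 37° C to half-log serial dilutions (0.5% DMSO control), dosed 24 h after plating FU97 cells at 5×10^3 per well.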

## COc1cccc2c1C(=O)c1c(O)c3c(c(O)c1C2=O)C[C@@](O)(C(C)=O)C[C@@H]3O[C@H]1C[C@H](N)[C@H](O)[C@H](C)O1 [Daunorubicin HCl (Daunomycin HCl), Daunorubicin HCl]
AGS
  Average Area Under the Viability Curve (AUC), AUC norm value: −1.2278
Hs746T
  Average Area Under the Viability Curve (AUC), AUC norm value: 0.1484
KATO3
  Average Area Under the Viability Curve (AUC), AUC norm value: 6.288
MKN1
  Average Area Under the Viability Curve (AUC), AUC norm value: −0.2877
MKN28
  Average Area Under the Viability Curve (AUC), AUC norm value: 2.146
MKN45
  Average Area Under the Viability Curve (AUC), AUC norm value: 2.949
MKN74
  Average Area Under the Viability Curve (AUC), AUC norm value: 1.215
NCC19
  Average Area Under the Viability Curve (AUC), AUC norm value: 0.9357
NCC20
  Average Area Under the Viability Curve (AUC), AUC norm value: −0.7736
NCC24
  Average Area Under the Viability Curve (AUC), AUC norm value: −0.8801
NCC59
  Average Area Under the Viability Curve (AUC), AUC norm value: −0.5161
NCI_N87
  Average Area Under the Viability Curve (AUC), AUC norm value: 4.5372
OCUM1
  Average Area Under the Viability Curve (AUC), AUC norm value: 0.7066
SK4
  Average Area Under the Viability Curve (AUC), AUC norm value: 0
SNU16
  Average Area Under the Viability Curve (AUC), AUC norm value: −1.065
SNU1750
  Average Area Under the Viability Curve (AUC), AUC norm value: −0.7795
SNU1967
  Average Area Under the Viability Curve (AUC), AUC norm value: −1.481
SNU1
  Average Area Under the Viability Curve (AUC), AUC norm value: −0.7605
SNU216
  Average Area Under the Viability Curve (AUC), AUC norm value: 0.4507
SNU484
  Average Area Under the Viability Curve (AUC), AUC norm value: −1.299
SNU601
  Average Area Under the Viability Curve (AUC), AUC norm value: 1.207
SNU620
  Average Area Under the Viability Curve (AUC), AUC norm value: −1.239
SNU638
  Average Area Under the Viability Curve (AUC), AUC norm value: −1.229
SNU668
  Average Area Under the Viability Curve (AUC), AUC norm value: −0.9142
SNU719
  Average Area Under the Viability Curve (AUC), AUC norm value: 3.416
YCC11
  Average Area Under the Viability Curve (AUC), AUC norm value: −1.742
YCC2
  Average Area Under the Viability Curve (AUC), AUC norm value: 1.127
YCC3
  Average Area Under the Viability Curve (AUC), AUC norm value: 2.699
FU97
  Average Area Under the Viability Curve (AUC), AUC norm value: 0.3965

## COc1cccc2c1C(=O)c1c(O)c3c(c(O)c1C2=O)C[C@@](O)(C(=O)CO)C[C@@H]3O[C@H]1C[C@H](N)[C@H](O)[C@H](C)O1 [Doxorubicin (Adriamycin), Doxorubicin]
AGS
  Average Area Under the Viability Curve (AUC), AUC norm value: −1.081
Hs746T
  Average Area Under the Viability Curve (AUC), AUC norm value: −0.08449
KATO3
  Average Area Under the Viability Curve (AUC), AUC norm value: 7.9338
MKN1
  Average Area Under the Viability Curve (AUC), AUC norm value: −0.2016
MKN28
  Average Area Under the Viability Curve (AUC), AUC norm value: 2.98
MKN45
  Average Area Under the Viability Curve (AUC), AUC norm value: 2.505
MKN74
  Average Area Under the Viability Curve (AUC), AUC norm value: 1.522
NCC19
  Average Area Under the Viability Curve (AUC), AUC norm value: 2.867
NCC20
  Average Area Under the Viability Curve (AUC), AUC norm value: −0.4879
NCC24
  Average Area Under the Viability Curve (AUC), AUC norm value: −0.6126
NCC59
  Average Area Under the Viability Curve (AUC), AUC norm value: 1.231
NCI_N87
  Average Area Under the Viability Curve (AUC), AUC norm value: 6.891
OCUM1
  Average Area Under the Viability Curve (AUC), AUC norm value: 0.6788
SK4
  Average Area Under the Viability Curve (AUC), AUC norm value: 0.213
SNU16
  Average Area Under the Viability Curve (AUC), AUC norm value: −0.0398
SNU1750
  Average Area Under the Viability Curve (AUC), AUC norm value: −0.9576
SNU1967
  Average Area Under the Viability Curve (AUC), AUC norm value: −0.8787
SNU1
  Average Area Under the Viability Curve (AUC), AUC norm value: 0
SNU216
  Average Area Under the Viability Curve (AUC), AUC norm value: 0.7466
SNU484
  Average Area Under the Viability Curve (AUC), AUC norm value: −0.8418
SNU601
  Average Area Under the Viability Curve (AUC), AUC norm value: 4.481
SNU620
  Average Area Under the Viability Curve (AUC), AUC norm value: −0.2009
SNU638
  Average Area Under the Viability Curve (AUC), AUC norm value: −0.3342
SNU668
  Average Area Under the Viability Curve (AUC), AUC norm value: −0.3909
SNU719
  Average Area Under the Viability Curve (AUC), AUC norm value: 4.66
YCC11
  Average Area Under the Viability Curve (AUC), AUC norm value: −1.877
YCC2
  Average Area Under the Viability Curve (AUC), AUC norm value: 1.4121
YCC3
  Average Area Under the Viability Curve (AUC), AUC norm value: 2.8776
FU97
  Average Area Under the Viability Curve (AUC), AUC norm value: −1.237

## C/C(=C\c1csc(C)n1)[C@@H]1C[C@@H]2O[C@@H]2CCC[C@H](C)[C@H](O)[C@@H](C)C(=O)C(C)(C)[C@@H](O)CC(=O)O1 [Epothilone A]
AGS; AGS cells, 12-point dose-response
  area under the viability curve (AUC), normalized: −1.655
Hs746T; Hs746T cells, 12-point dose-response
  area under the viability curve (AUC), normalized: 1.217
KATO3; 12-point dose-response
  area under the viability curve (AUC), normalized: 4.761
MKN1; 12-point dose-response
  area under the viability curve (AUC), normalized: −1.14
MKN28; 12-point dose-response
  area under the viability curve (AUC), normalized: −1.4393
MKN45; MKN45 cells, 12-point dose-response
  area under the viability curve (AUC), normalized: 0.6604
MKN74; 12-point dose-response
  area under the viability curve (AUC), normalized: 0.2913
NCC19; 12-point dose-response
  area under the viability curve (AUC), normalized: 0
NCC20; 12-point dose-response
  area under the viability curve (AUC), normalized: −0.5459
NCC24; 12-point dose-response
  area under the viability curve (AUC), normalized: −1.8431
NCC59; 12-point dose-response
  area under the viability curve (AUC), normalized: 3.583
NCI_N87; 12-point dose-response
  area under the viability curve (AUC), normalized: −1.51
OCUM1; 12-point dose-response
  area under the viability curve (AUC), normalized: 1.699
SK4; SK4 cells, 12-point dose-response
  area under the viability curve (AUC), normalized: −0.9541
SNU16; 12-point dose-response
  area under the viability curve (AUC), normalized: −1.12
SNU1750; SNU1750 cells, 12-point dose-response
  area under the viability curve (AUC), normalized: 1.039
SNU1967; 12-point dose-response
  area under the viability curve (AUC), normalized: 0.6477
SNU1; 12-point dose-response
  area under the viability curve (AUC), normalized: −1.75
SNU216; SNU216 cells, 12-point dose-response
  area under the viability curve (AUC), normalized: 2.403
SNU484; SNU484 cells, 12-point dose-response
  area under the viability curve (AUC), normalized: −0.4364
SNU601; 12-point dose-response
  area under the viability curve (AUC), normalized: −0.2006
SNU620; 12-point dose-response
  area under the viability curve (AUC), normalized: −2.268
SNU638; 12-point dose-response
  area under the viability curve (AUC), normalized: 0.3118
SNU668; SNU668 cells, 12-point dose-response
  area under the viability curve (AUC), normalized: −0.2909
SNU719; 12-point dose-response
  area under the viability curve (AUC), normalized: 4.484
YCC11; YCC11 cells, 12-point dose-response
  area under the viability curve (AUC), normalized: −1.2702
YCC2; 12-point dose-response
  area under the viability curve (AUC), normalized: 0.1784
YCC3; 12-point dose-response
  area under the viability curve (AUC), normalized: 2.8742
FU97; 12-point dose-response
  area under the viability curve (AUC), normalized: 0.9454
